Test results from patent US11746354B2, “Homology dependent repair genome editing” (Inari Agriculture Technology, Inc., priority 2019, dated 2023).

Test system: maize (Zea mays) r1-colored1 gene
Test: HDR editing of an endogenous gene in maize protoplasts (RNP + dsDNA donor template, MiSeq sequencing)
Type: cell-based
Parameters: unit not given here
Conditions: 5 μM compound, 0.1% DMSO, B104 maize protoplasts, 48 hours at 26 degrees Celsius in the dark, average of triplicate samples; for Hypoxia Avg. (HDR): hypoxic conditions; for Normoxia Avg. (HDR): normoxic conditions
Experimental: This example describes a second set of experiments which investigated the effects of the 81 small molecules previously identified in the “traffic light” screen (Example 1) on HDR efficiency in editing an endogenous gene, the maize (Zea mays) r1-colored1 gene with partial genomic sequence SEQ ID NO: 5. A ribonucleoprotein (RNP) was prepared with a guide RNA designed to edit the promoter located at positions 313-333 of SEQ ID NO:5. A donor template was provided as a dsDNA for HDR repair. The experiments were carried out with protoplasts produced from etiolated leaves of B104 maize grown in the dark for 11 days. The protoplasts were co-transfected with the RNP and donor template. Transfected cells were incubated 48 hours at 26 degrees Celsius in the dark under either normoxic or hypoxic conditions with the indicated negative controls, positive controls, and small molecules and then harvested. The negative controls comprised cells transfected with the RNP only (no donor template). DMSO controls comprised the RNP and donor template and DMSO at a final concentration of 0.5% by volume DMSO. The positive control was a mixture of KU-0060648 (CAS No. 881375-00-4; Fischer Scientific, Waltham, Mass., USA), STL127705 (7-[2-(3,4-dimethoxyphenyl)ethyl]amino-3-(3-fluorophenyl)pyrimido[4,5-d]pyrimidine-2,4(1H,3H)-dione); Vitas-M, Champaign, Ill., USA), NU7441 (CAS No. 503468-95-9; Fischer Scientific Waltham, Mass., USA), and SCR7 pyrazine (CAS No. 14892-97-8; Tocris, Minneapolis, Minn., USA) (all at a stock concentration of 5 mM in DMSO) that was provided to the protoplasts at a final concentration of each of the four compounds of 5 μM. Certain positive control compounds have been reported to increase CRISPR-mediated HDR (Robert et al. 2015; Chu et al., 2015). All of the tested small molecules were also provided to the protoplasts at a final concentration of 5 μM of the compound and a final DMSO concentration of 0.1% by volume. Genomic DNA was isolated using KAPA Pure Bead capture (Kapa Biosystem) and the isolated gDNA was used as the template for a PCR with PHUSION FLASH (ThermoFisher). Samples were cleaned with KAPA Pure Bead capture and Illumina libraries were prepared and sequenced on MiSeq.

## Nc1nc(Cl)nc2c1ncn2[C@@H]1O[C@H](CO)[C@@H](O)[C@H]1O [2-Chloroadenosine]
  Hypoxia Avg. (HDR): 5.00
  Normoxia Avg. (HDR): 2.45

## CN(C)NC(=O)CCC(=O)O [Daminozide]
  Hypoxia Avg. (HDR): 0.48
  Normoxia Avg. (HDR): 4.57

## Cc1oc(-c2ccccc2)nc1CCOc1ccc(CC2SC(=O)NC2=O)c2sccc12 (stereo not drawn) [Edaglitazone]
  Hypoxia Avg. (HDR): 6.28
  Normoxia Avg. (HDR): 3.56

## CC(C)Cn1c(=O)n(C)c(=O)c2nc[nH]c21 [IBMX]
  Hypoxia Avg. (HDR): 4.23
  Normoxia Avg. (HDR): 3.05

## Cc1ccc(C(=O)N(CCCN)[C@@H](c2[nH]c3cc(Cl)ccc3c(=O)[n+]2Cc2ccccc2)C(C)C)cc1 [Ispinesib]
  Hypoxia Avg. (HDR): 4.04
  Normoxia Avg. (HDR): 3.36

## CC(=O)NCCNc1cc(Cl)nn2c(-c3cccc(S(=O)(=O)N(C)C)c3)c(C)nc12 [MI 14]
  Hypoxia Avg. (HDR): 7.75
  Normoxia Avg. (HDR): 0.37

## c1ccc(-c2ccc(CNc3nc(-c4ccccn4)nnc3-c3ccccc3)cc2)cc1 [ML 228]
  Hypoxia Avg. (HDR): 4.49
  Normoxia Avg. (HDR): 0.46

## CSc1nc(-c2ccc(F)cc2)c(-c2ccnc(NC(C)c3ccccc3)c2)[nH]1 (stereo not drawn) [ML 3403]
  Hypoxia Avg. (HDR): 4.36
  Normoxia Avg. (HDR): 1.47

## Nc1nccc(-c2ccc3noc(-c4ccc(Cl)cc4)c3c2)n1 [PIM-1 Inhibitor 2]
  Hypoxia Avg. (HDR): 5.19
  Normoxia Avg. (HDR): 1.37

## CC(=O)[C@H]1CC[C@H]2[C@@H]3CC[C@@H]4C[C@H](O)CC[C@]4(C)[C@H]3CC[C@]12C [Pregnanolone]
  Hypoxia Avg. (HDR): 2.52
  Normoxia Avg. (HDR): 4.43

## O=C1N=C(NCc2cccs2)S/C1=C\c1ccc2ncccc2c1 [Ro 3306]
  Hypoxia Avg. (HDR): 4.91
  Normoxia Avg. (HDR): 1.64

## CN(CCOc1ccc(CC2SC(=O)NC2=O)cc1)c1ccccn1 (stereo not drawn) [Rosiglitazone]
  Hypoxia Avg. (HDR): 4.97
  Normoxia Avg. (HDR): 3.20

## Cc1ccc(C(=O)N(CCCN)[C@@H](c2oc3cc(Cl)ccc3c(=O)c2Cc2ccccc2)C(C)C)cc1.Cl [SB 743921 Hydrochloride]
  Hypoxia Avg. (HDR): 2.97
  Normoxia Avg. (HDR): 4.76

## O=S(=O)(NCCCCCCc1ccccc1)c1cccc2c(Cl)cccc12 [SC-9]
  Hypoxia Avg. (HDR): 5.11
  Normoxia Avg. (HDR): 2.67

## CC(C)(C)c1ccc(S(=O)(=O)NCc2ccc(C(=O)Nc3cccnc3)cc2)cc1 [STF 31]
  Hypoxia Avg. (HDR): 5.00
  Normoxia Avg. (HDR): 0.40
